Drawing on BindingDB's records for doi:10.1038/sj.bjp.0706048 (University of Nottingham, 2005), this text covers Kd for eight compounds.

Structures can show the parent of a compound that is named as a salt.

The target in test [1] is Beta-3 adrenergic receptor (Homo sapiens, UniProt P13945). Kind of test: 3H-CGP 12177 Whole Cell Binding Assay.
From the text: (§1) The whole cell-binding studies were undertaken in CHO cell lines stably expressing each beta-adrenoceptor subtype.
The target in test [2] is Beta-1 adrenergic receptor (Homo sapiens, UniProt P08588). Kind of test: 3H-CGP 12177 Whole Cell Binding Assay. As to conditions: pH 7.4; 37 °C.
Beta-1 adrenergic receptor, sequence (P08588 whole entry): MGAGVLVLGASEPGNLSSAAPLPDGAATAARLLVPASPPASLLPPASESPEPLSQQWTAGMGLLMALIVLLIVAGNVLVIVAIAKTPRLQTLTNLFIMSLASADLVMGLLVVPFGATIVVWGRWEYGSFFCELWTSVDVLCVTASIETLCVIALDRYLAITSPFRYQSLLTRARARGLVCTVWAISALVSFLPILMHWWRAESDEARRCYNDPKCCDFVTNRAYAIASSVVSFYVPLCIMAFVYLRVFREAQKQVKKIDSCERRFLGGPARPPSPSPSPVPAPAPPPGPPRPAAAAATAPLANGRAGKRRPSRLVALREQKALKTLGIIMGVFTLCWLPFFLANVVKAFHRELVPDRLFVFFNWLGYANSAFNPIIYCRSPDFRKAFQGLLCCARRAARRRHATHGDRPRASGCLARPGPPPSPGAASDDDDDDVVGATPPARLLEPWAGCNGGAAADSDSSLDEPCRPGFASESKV
From the text: as §1

Beta-3 adrenergic receptor, sequence (P13945 whole entry): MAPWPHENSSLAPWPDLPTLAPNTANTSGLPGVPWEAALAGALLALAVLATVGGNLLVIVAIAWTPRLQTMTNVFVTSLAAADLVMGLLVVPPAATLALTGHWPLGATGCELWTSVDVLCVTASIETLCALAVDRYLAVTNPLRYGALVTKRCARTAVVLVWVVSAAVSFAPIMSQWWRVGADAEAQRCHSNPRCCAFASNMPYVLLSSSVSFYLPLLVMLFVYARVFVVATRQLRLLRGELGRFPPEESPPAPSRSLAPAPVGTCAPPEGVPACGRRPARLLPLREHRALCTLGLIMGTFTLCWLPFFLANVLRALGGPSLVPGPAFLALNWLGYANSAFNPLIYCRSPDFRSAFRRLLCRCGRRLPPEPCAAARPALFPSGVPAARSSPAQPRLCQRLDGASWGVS

In the case of `CC(C)NC[C@H](O)COc1ccc(CCOCC2CC2)cc1` [[(2S)-3-{4-[2-(cyclopropylmethoxy)ethyl]phenoxy}-2-hydroxypropyl](propan-2-yl)amine], the affinity in test [1], expressed as Kd, was 1.07 µM.
With `O=C(O)COc1ccc(OCCNC[C@@H](O)COc2ccccc2)cc1` [2-[4-(2-{[(2R)-2-hydroxy-3-phenoxypropyl]amino}ethoxy)phenoxy]acetic acid], binding in test [1] was put at a Kd of 0.234 µM.
With `CC(C)(C)NCC(O)COc1cccc2c1C[C@H](O)[C@H](O)C2` (stereo partly specified) [Corgard], the Kd (in general, a measure of binding affinity in units of concentration) worked out at 0.059 µM in test [2] and 0.661 µM in test [1].
For `CC(C)NCC(O)c1ccc2ccccc2c1` (stereo unspecified) [1-(naphthalen-2-yl)-2-(propan-2-ylamino)ethan-1-ol], the Kd stood at 0.363 µM in test [2] and 1.29 µM in test [1].
In the case of `Cc1ccc(Cl)c(OCC(O)CNC(C)(C)C)c1` (stereo unspecified) [tert-butyl[3-(2-chloro-5-methylphenoxy)-2-hydroxypropyl]amine], the Kd in test [2] turned out to be 0.0031 µM; in test [1] it was 0.091 µM.
On to `CC(C)(C)NC[C@H](O)COc1nsnc1N1CCOCC1` (racemic) [tert-butyl(2-hydroxy-3-{[4-(morpholin-4-yl)-1,2,5-thiadiazol-3-yl]oxy}propyl)amine], for which, in test [1], binding was characterised by a dissociation constant (Kd) of 0.158 µM.
Take `OCc1cc(C(O)CNCCCCCCOCCCCc2ccccc2)ccc1O` (stereo unspecified) [salmeterol xinafoate]: in test [1], the Kd worked out at 1.86 µM.
In turn, `CC(C)(C)NCC(O)COc1cccc2[nH]c(=O)[nH]c12` (stereo unspecified) [4-[3-(tert-butylamino)-2-hydroxypropoxy]-2,3-dihydro-1H-1,3-benzodiazol-2-one hydrochloride] showed a Kd in test [1] of 0.102 µM.
